From patent publication US7482455B2, “Chemical compounds” (SmithKline Beecham Corporation, priority 2002, dated 2009)
Where a name gives a salt, the structure may show the parent alone.

target: T1, hYAK3 (Homo sapiens, UniProt O43781); experiment: YAK3 Scintillation Proximity Assay using Ser164 of myelin basic protein as the phosphoacceptor (kinase assay of purified hYAK3); type: biochemical; conditions: purified GST-hYak3-His6 (residues 124-526), 4 nM; 0.001 mM ATP; 4 μM Ser164 peptide; 2 hours at room temperature; compounds 50 μM to 0.5 nM
T1 construct: containing amino acid residues 124-526 of human YAK3; GST (N); His6 (C); made in house; host or cells: baculovirus expression system in Sf9 cells
T1 sequence (O43781 124-526): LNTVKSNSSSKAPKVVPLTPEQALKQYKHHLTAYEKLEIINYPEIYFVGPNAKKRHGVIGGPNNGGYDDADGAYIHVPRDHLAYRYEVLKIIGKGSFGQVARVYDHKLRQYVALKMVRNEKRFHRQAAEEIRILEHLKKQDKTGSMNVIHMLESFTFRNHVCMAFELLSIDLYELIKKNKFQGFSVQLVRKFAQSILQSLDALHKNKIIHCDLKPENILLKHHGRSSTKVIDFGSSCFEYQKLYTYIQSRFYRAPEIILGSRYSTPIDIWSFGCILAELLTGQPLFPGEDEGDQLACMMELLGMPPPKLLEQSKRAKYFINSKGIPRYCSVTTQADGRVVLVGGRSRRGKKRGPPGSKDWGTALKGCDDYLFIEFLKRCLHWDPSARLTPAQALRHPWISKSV
Description: YAK3 Scintillation Proximity Assays Using Ser164 of Myelin Basic Protein as the Phosphoacceptor
Source of Ser164 Substrate Peptide:
The biotinylated Ser164, S164A peptide(Biotinyl -LGGRDSRAGS*PMARR—OH), sequence derived from the C-terminus of bovine myelin basic protein (MBP) with Ser162 substituted as Ala162, was purchased from California Peptide Research Inc. (Napa, Calif.), and its purity was determined by HPLC. Phosphorylation occurs at position 164 (marked S* above). The calculated molecular mass of the peptide was 2166 dalton. Solid sample was dissolved at 10 mM in DMSO, aliquoted, and stored at −20° C. until use.
hYAK3: Glutathione-S-Transferase (GST)-hYak3-His6 containing amino acid residues 124-526 of human YAK3 was purified from baculovirus expression system in Sf9 cells using Glutathione Sepharose 4B column chromatography followed by Ni-NTA-Agarose column chromatography. Purity greater than 65% typically was achieved. Samples, in 50 mM Tris, 150 mM NaCl, 10% glycerol, 0.1% Triton, 250 mM imidazole, 10 mM β-mercapto ethanol, pH 8.0.—
were stored at −80° C. until use.
Kinase Assay of Purified hYAK3:
Assays were performed in 96 well (Costar, Catalog No. 3789) or 384 well plates (Costar, Catalog No. 3705). Reaction (in 20, 25, or 40 μl volume) mix contained in final concentrations 25 mM Hepes buffer, pH 7.4; 10 mM MgCl2; 10 mM β-mercapto ethanol; 0.0025% Tween-20; 0.001 mM ATP, 0.1 ? Ci of [ ? -^33P]ATP; purified hYAK3 (7-14 ng/assay; 4 nM final); and 4 μM Ser164 peptide. Compounds, titrated in DMSO, were evaluated at concentrations ranging from 50 μM to 0.5 nM. […] Reactions were incubated for 2 hours at room temperature and were stopped by a 75 ul addition of […] Streptavidin Scintillation Proximity beads (Amersham Pharmacia Biotech, Catalog No. RPNQ 0007) in PBS, pH 7.4, 10 mM EDTA, 0.1% Triton X-100, 1 mM ATP. Under the assay conditions defined above, the Km(apparent) for ATP was determined to be 7.2+/−2.4 μM. Assay results are depicted in Table 1.

Row | IC50 | SMILES
1 | < 1000 nM | COc1ccc2cc(C(=O)O)c(NCCN(C)C)nc2c1 [Example 6, 2-(2-dimethylamino-ethylamino)-7-methoxy-quinoline-3-carboxylic acid hydrochloride]
2 | < 1000 nM | O=C(O)c1cc2ccc(O)cc2nc1Nc1ccccc1Cl [Example 12, 2-(2-Chloro-phenylamino)-7-hydroxy-quinoline-3-carboxylic acid]
3 | < 1000 nM | COc1ccc2cc(C(=O)O)c(NC3Cc4ccccc4C3)nc2c1 [Example 7, 2-(indan-2-ylamino)-7-methoxy-quinoline-3-carboxylic acid]
4 | < 1000 nM | COc1ccc2cc(C(=O)O)c(NCCc3ccccc3)nc2c1 [Example 4, 7-methoxy-2-phenethylamino-quinoline-3-carboxylic acid]
5 | < 1000 nM | COc1ccc2cc(C(=O)O)c(NCc3ccccc3)nc2c1 [Example 3, 2-benzylamino-7-methoxy-quinoline-3-carboxylic acid]
6 | < 1000 nM | COc1ccc2cc(C(=O)O)c(NCCCN)nc2c1 [Example 2, 2-(3-amino-propylamino)-7-methoxy-quinoline-3-carboxylic acid]
7 | < 1000 nM | COc1ccc2cc(C(=O)O)c(NCCc3ccncc3)nc2c1 [Example 5, 7-methoxy-2-(2-pyridin-4-yl-ethylamino)-quinoline-3-carboxylic acid]
8 | 1000 to 10000 nM | COc1ccc2cc(C(=O)O)c(NCCCN3CCOCC3)nc2c1 [Example 8, 7-methoxy-2-(3-morpholin-4-yl-propylamino)-quinoline-3-carboxylic acid]

Row | SMILES | IC50
9 | COc1ccc2cc(C(=O)O)c(NCCCNC(=O)OC(C)(C)C)nc2c1 [Example 1, 2-(3-tert-butoxycarbonylamino-propylamino)-7-methoxy-quinoline-3-carboxylic acid] | 1000 to 10000 nM
